Assays:
Assay type in all cases: physicochemical
[1] = Physical (crystal form) stability on exposure to ambient conditions, relative humidity or elevated pressure; conditions: for crystal form change on exposure to 75% relative humidity: 75% relative humidity for five days; for crystal form change on exposure to 97% relative humidity: 97% relative humidity for 5 days
Excerpt: (§1) Form 1 is a non-solvated, non-hygroscopic crystal.
Form 3 is a non-solvated and non-hygroscopic crystal.
Form 4 is a non-solvated crystal.

[2] = Dynamic Vapor Sorption (DVS) analysis; conditions: for weight gained in DVS analysis: between 0-90% relative humidity, 25° C.
Description: Dynamic Vapor Sorption (DVS). DVS experiments were conducted on a Surface Measurement Systems DVS-HT at 25° C. The instrument was operated in step mode and the relative humidity was increased in 10% RH increments from 40% RH to 90% RH, then decreased from 90% RH to 0% RH, then increased from 0% RH to 90% RH, then decreased from 90% RH to 0% RH. An extra step at 75% RH was included in each cycle. The mass equilibrium criterion was set at 0.005% change in mass over time (dm/dt) prior to each humidity level. A minimum step time of 10 minutes and a maximum step time of 240 minutes were specified.

[3] = Milling at -196° C. and recrystallization
Excerpt: as §1

[4] = Stability of Form 1 to physical and chemical manipulation (Example 3)
Description: Form 1 is stable to lyophilization when initially dissolved in a 50:50 mixture of DMC:ACN.
A saturated solution of Form 1 in any of MeOH, ACN, acetone, DCM, TFE, or 1,4-dioxane is stable to evaporation over 3.5 hours at 30° C. under reduced pressure.
A saturated solution of Form 1 in any of MeOH, THF, MeOAc, Toluene, or EtOH in 1 vol % Heptane is stable after heating to 50° C., filtering the solution and rapidly cooling to 5° C.
A suspension of Form 1 in any of DMSO, n-BuOH, 2-Methoxyethanol, IPA, EtOH, Nitromethane, DMC, n-PrOH, ACN, Acetone, 2-Butanone, EtOAc, THF, EtOH in 5 vol % Toluene, MeOAc, or EtOH in 5 vol % MeOH is stable after cycling temperature between 5 and 40° C. for >48 hrs with constant stirring.
Form 1 was also stable to exposure to 75% relative humidity or to high pressure (10 kPSi).
A saturated solution of Form 1 in any of n-PrOH, ACN, Acetone, 2-Butanone, EtOAc, THF, EtOH in 5 vol % Toluene, MeOAc, or EtOH in 5 vol % MeOH at 25° C., is stable after filtering the solution and then cooling the solution to 5° C. at a rate of 1° C./min.
A saturated solution of Form 1 in any of TFE, 2-Methoxyethanol, IPA, EtOH, Heptane, 4-Methyl-2-pentanone, cyclohexane, ACN, Acetone, 2-Butanone, EtOAc, THF, or EtOH in 5 vol % Toluene is stable to evaporation over 2-28 days under ambient conditions.

| crystal form change on exposure to 75% relative humidity [1] | crystal form change on exposure to 97% relative humidity [1] | physical stability at ambient conditions ([1]; ambient conditions, no duration stated) | crystal form change on exposure to elevated pressures ([1]; elevated pressures (~0.35 GPa) for 3 days) | hygroscopicity of the crystal [2] | weight gained in DVS analysis [2] | time to recrystallize back to Form 1 after milling ([3]; after becoming amorphous by milling at -196° C. for 2.5 hours) | solid form after milling ([3]; milled at -196° C. for 2.5 hours) | crystal form stability to exposure to water vapor ([4]; 75% relative humidity) | crystal form stability to pressing ([4]; high pressure (10 kPSi)) | crystal form stability to lyophilization ([4]; initially dissolved in a 50:50 mixture of DMC:ACN) | crystal form stability to controlled cooling ([4]; saturated solution at 25° C. in any of n-PrOH, ACN, Acetone, 2-Butanone, EtOAc, THF, EtOH in 5 vol % Toluene, MeOAc, EtOH in 5 vol % MeOH, filtered, cooled to 5° C. at 1° C./min) | crystal form stability to fast evaporation ([4]; saturated solution in any of MeOH, ACN, acetone, DCM, TFE or 1,4-dioxane, evaporation over 3.5 hours at 30° C. under reduced pressure) | crystal form stability to rapid cooling ([4]; saturated solution in any of MeOH, THF, MeOAc, Toluene or EtOH in 1 vol % Heptane, heated to 50° C., filtered, rapidly cooled to 5° C.) | crystal form stability to slow evaporation ([4]; saturated solution in any of TFE, 2-Methoxyethanol, IPA, EtOH, Heptane, 4-Methyl-2-pentanone, cyclohexane, ACN, Acetone, 2-Butanone, EtOAc, THF, EtOH in 5 vol % Toluene, evaporation over 2-28 days under ambient conditions) | crystal form stability to slurry equilibration ([4]; suspension in any of DMSO, n-BuOH, 2-Methoxyethanol, IPA, EtOH, Nitromethane, DMC, n-PrOH, ACN, Acetone, 2-Butanone, EtOAc, THF, EtOH in 5 vol % Toluene, MeOAc, EtOH in 5 vol % MeOH, cycling 5-40° C. for >48 hrs with stirring) | time physically stable at ambient conditions ([1]; ambient conditions) | Compound |
| --- | --- | --- | --- | --- | --- | --- | --- | --- | --- | --- | --- | --- | --- | --- | --- | --- | --- |
| does not undergo a crystal form change | partially converts to Form 2 | physically stable | does not undergo a crystal form change | non-hygroscopic | < 0.25 % wt | ≤ 30 min | becomes amorphous | stable | stable | stable | stable | stable | stable | stable | stable |  | [2H]C([2H])([2H])C(c1cc2nnc(-c3cc(F)ccc3F)n2nc1OCc1ncnn1C)(C([2H])([2H])[2H])C([2H])([2H])[2H] [Form 1, 7-(tert-Butyl-d9)-3-(2,5-difluorophenyl)-6-((1-methyl-1H-1,2,4-triazol-5-yl)methoxy)-[1,2,4]triazolo[4,3-b]pyridazine] |
|  | does not undergo a crystal form change |  |  | non-hygroscopic | < 0.25 % wt |  |  |  |  |  |  |  |  |  |  | at least 2 weeks | [2H]C([2H])([2H])C(c1cc2nnc(-c3cc(F)ccc3F)n2nc1OCc1ncnn1C)(C([2H])([2H])[2H])C([2H])([2H])[2H] [Form 3, 7-(tert-Butyl-d9)-3-(2,5-difluorophenyl)-6-((1-methyl-1H-1,2,4-triazol-5-yl)methoxy)-[1,2,4]triazolo[4,3-b]pyridazine] |
| does not undergo a crystal form change |  |  |  |  |  |  |  |  |  |  |  |  |  |  |  | at least 2 weeks | [2H]C([2H])([2H])C(c1cc2nnc(-c3cc(F)ccc3F)n2nc1OCc1ncnn1C)(C([2H])([2H])[2H])C([2H])([2H])[2H] [Form 4, 7-(tert-Butyl-d9)-3-(2,5-difluorophenyl)-6-((1-methyl-1H-1,2,4-triazol-5-yl)methoxy)-[1,2,4]triazolo[4,3-b]pyridazine] |

Source: patent publication US20150158870A1, “POLYMORPHS OF 7-(TERT-BUTYL-D9)-3-(2,5-DIFLUOROPHENYL)-6-((1-METHYL-1H-1,2,4-TRIAZOL-5-YL)METHOXY)-[1,2,4]TRIAZOLO[4,3-B]PYRIDAZINE” (Concert Pharmaceuticals Inc., priority 2012, published 2015)
